Measurements reported in patent US9029359B2, “Heteroaryl Btk inhibitors” (Biogen Idec MA, Inc., priority 2009, dated 2015).

Biological target: T1, BTK (Homo sapiens, UniProt Q06187)
T1 construct: purchased Upstate 14-552
Experiment: In vitro BTK kinase assay: BTK-POLYGAT-LS ASSAY
Format: biochemical
Conditions: ATP 10 uM
In short: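 BTK phosphorylation of polyGAT (100 nM final) with ATP at 10 μM final, 10 mM Tris-HCl pH 7.5 kinase buffer, quenched by EDTA after 30 min. Potency given as IC50.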

T1 sequence (Q06187 whole entry): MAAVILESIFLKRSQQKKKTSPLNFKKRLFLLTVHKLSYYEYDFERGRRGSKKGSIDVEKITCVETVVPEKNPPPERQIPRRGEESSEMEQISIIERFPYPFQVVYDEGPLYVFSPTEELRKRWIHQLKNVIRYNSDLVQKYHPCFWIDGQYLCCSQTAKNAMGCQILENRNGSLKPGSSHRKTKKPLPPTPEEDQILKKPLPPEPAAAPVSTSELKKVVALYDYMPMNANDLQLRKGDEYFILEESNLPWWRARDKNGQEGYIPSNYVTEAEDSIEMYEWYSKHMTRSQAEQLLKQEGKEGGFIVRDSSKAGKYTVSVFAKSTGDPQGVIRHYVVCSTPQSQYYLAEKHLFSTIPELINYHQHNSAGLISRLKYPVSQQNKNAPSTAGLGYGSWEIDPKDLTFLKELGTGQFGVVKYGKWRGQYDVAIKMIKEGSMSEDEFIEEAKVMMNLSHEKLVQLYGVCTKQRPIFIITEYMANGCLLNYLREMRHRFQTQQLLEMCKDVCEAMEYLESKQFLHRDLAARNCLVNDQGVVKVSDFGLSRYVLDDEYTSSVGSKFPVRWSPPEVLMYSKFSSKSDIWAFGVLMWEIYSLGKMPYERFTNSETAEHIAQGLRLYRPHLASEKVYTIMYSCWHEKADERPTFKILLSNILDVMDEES

Row | SMILES | IC50
1 | O=C(N[C@@H]1CCCN(c2ncnc3[nH]ccc23)C1)[C@H](Nc1ccccc1)c1ccccc1 [Example 106, (R)—N—((R)-1-(7H-pyrrolo[2,3-d]pyrimidin-4-yl)piperidin-3-yl)-2-phenyl-2-(phenylamino)acetamide] | > 10000 nM
2 | O=C(N[C@@H]1CCCN(c2ncnc3[nH]ccc23)C1)[C@H](Nc1ccccc1)C1CCCCC1 [Example 109, (R)—N—((R)-1-(7H-pyrrolo[2,3-d]pyrimidin-4-yl)piperidin-3-yl)-2-cyclohexyl-2-(phenylamino)acetamide] | 1000 to 10000 nM
3 | C[C@@H](O)[C@@H](Nc1ccccc1)C(=O)N[C@@H]1CCCN(c2ncnc3[nH]ccc23)C1 [Example 110, (2R,3R)—N—((R)-1-(7H-pyrrolo[2,3-d]pyrimidin-4-yl)piperidin-3-yl)-3-hydroxy-2-(phenylamino)butanamide] | 100 to 999 nM
4 | C[C@H](O)[C@@H](Nc1ccccc1)C(=O)N[C@@H]1CCCN(c2ncnc3[nH]ccc23)C1 [Example 111, (2R,3S)—N—((R)-1-(7H-pyrrolo[2,3-d]pyrimidin-4-yl)piperidin-3-yl)-3-hydroxy-2-(phenylamino)butanamide] | 100 to 999 nM
5 | CC(C)[C@@H](Nc1cccc(Cl)c1)C(=O)N[C@@H]1CCCN(c2ncnc3[nH]ccc23)C1 [Example 112, (R)—N—((R)-1-(7H-pyrrolo[2,3-d]pyrimidin-4-yl)piperidin-3-yl)-2-(3-chlorophenylamino)-3-methylbutanamide] | < 100 nM
6 | CC[C@@H](Nc1ccccc1)C(=O)N[C@@H]1CCCN(c2ncnc3[nH]ccc23)C1 [Example 114, (R)—N—((R)-1-(7H-pyrrolo[2,3-d]pyrimidin-4-yl)piperidin-3-yl)-2-(phenylamino)butanamide] | < 100 nM
7 | CS(=O)(=O)CC[C@@H](Nc1ccccc1)C(=O)N[C@@H]1CCCN(c2ncnc3[nH]ccc23)C1 [Example 116, (R)—N—((R)-1-(7H-pyrrolo[2,3-d]pyrimidin-4-yl)piperidin-3-yl)-4-(methylsulfonyl)-2-(phenylamino)butanamide] | 1000 to 10000 nM
8 | CC[C@@H](C)[C@@H](Nc1ccccc1)C(=O)N[C@@H]1CCCN(c2ncnc3[nH]ccc23)C1 [Example 117, (2R,3R)—N—((R)-1-(7H-pyrrolo[2,3-d]pyrimidin-4-yl)piperidin-3-yl)-3-methyl-2-(phenylamino)pentanamide] | 100 to 999 nM
9 | O=C(N[C@@H]1CCCN(c2ncnc3[nH]ccc23)C1)[C@H](Nc1cccc(Cl)c1)C1CC1 [Example 119, (R)—N—((R)-1-(7H-pyrrolo[2,3-d]pyrimidin-4-yl)piperidin-3-yl)-2-(3-chlorophenylamino)-2-cyclopropylacetamide] | < 100 nM
10 | O=C(N[C@@H]1CCCN(c2ncnc3[nH]ccc23)C1)[C@H](Nc1cc(F)cc(F)c1)C1CC1 [Example 120, (R)—N—((R)-1-(7H-pyrrolo[2,3-d]pyrimidin-4-yl)piperidin-3-yl)-2-cyclopropyl-2-(3,5-difluorophenylamino)acetamide] | < 100 nM
11 | CC(C)(C)[C@@H](Nc1cc(F)cc(Cl)c1)C(=O)N[C@@H]1CCCN(c2ncnc3[nH]ccc23)C1 [Example 124, (R)—N—((R)-1-(7H-pyrrolo[2,3-d]pyrimidin-4-yl)piperidin-3-yl)-2-(3-chloro-5-fluorophenylamino)-3,3-dimethylbutanamide] | < 100 nM
12 | O=C(N[C@@H]1CCCN(c2ncnc3[nH]ccc23)C1)C1(Nc2ccccc2)CC1 [Example 126, (R)—N-(1-(7H-pyrrolo[2,3-d]pyrimidin-4-yl)piperidin-3-yl)-1-(phenylamino)cyclopropanecarboxamide] | 1000 to 10000 nM
13 | O=C(N[C@@H]1CCCN(c2ncnc3[nH]ccc23)C1)C1(Nc2ccccc2)CCCC1 [Example 127, (R)—N-(1-(7H-pyrrolo[2,3-d]pyrimidin-4-yl)piperidin-3-yl)-1-(phenylamino)cyclopentanecarboxamide] | 1000 to 10000 nM
14 | CC[C@@H](Nc1cccc(Cl)c1)C(=O)N[C@@H]1CCCN(c2ncnc3[nH]ncc23)C1 [Example 131, (R)—N—((R)-1-(1H-pyrazolo[3,4-d]pyrimidin-4-yl)piperidin-3-yl)-2-(3-chlorophenylamino)butanamide] | < 100 nM
15 | O=C(N[C@@H]1CCCN(c2ncnc3[nH]ccc23)C1)[C@@H](CC1CC1)Nc1cc(Cl)cc(Cl)c1 [Example 132, (R)—N—((R)-1-(7H-pyrrolo[2,3-d]pyrimidin-4-yl)piperidin-3-yl)-3-cyclopropyl-2-(3,5-dichlorophenylamino)propanamide] | 100 to 999 nM
16 | N#Cc1c(N)ncnc1N1CCC[C@@H](NC(=O)[C@H](Nc2cc(F)cc(Cl)c2)C2CC2)C1 [Example 134, (R)—N—((R)-1-(6-amino-5-cyanopyrimidin-4-yl)piperidin-3-yl)-2-(3-chloro-5-fluorophenylamino)-2-cyclopropylacetamide] | 1000 to 10000 nM
17 | Cn1ccc2c(N3CCC[C@@H](NC(=O)[C@H](Nc4cc(F)cc(Cl)c4)C4CC4)C3)ncnc21 [Example 136, (R)-2-(3-chloro-5-fluorophenylamino)-2-cyclopropyl-N—((R)-1-(7-methyl-7H-pyrrolo[2,3-d]pyrimidin-4-yl)piperidin-3-yl)acetamide] | 100 to 999 nM
18 | Cn1ncc2c(N3CCC[C@@H](NC(=O)[C@H](Nc4cc(F)cc(Cl)c4)C4CC4)C3)ncnc21 [Example 137, (R)-2-(3-chloro-5-fluorophenylamino)-2-cyclopropyl-N—((R)-1-(1-methyl-1H-pyrazolo[3,4-d]pyrimidin-4-yl)piperidin-3-yl)acetamide] | 1000 to 10000 nM
19 | O=C(N[C@@H]1CCCN(c2ncnc3[nH]cc(F)c23)C1)[C@H](Nc1cc(F)cc(Cl)c1)C1CC1 [Example 138, (R)-2-(3-chloro-5-fluorophenylamino)-2-cyclopropyl-N—((R)-1-(5-fluoro-7H-pyrrolo[2,3-d]pyrimidin-4-yl)piperidin-3-yl)acetamide] | 100 to 999 nM
20 | Nc1ncnc(N2CCC[C@@H](NC(=O)CNc3cc(Cl)cc(Cl)c3)C2)c1Cl [Example 140, (R)—N-(1-(6-amino-5-chloropyrimidin-4-yl)piperidin-3-yl)-2-(3,5-dichlorophenylamino)acetamide] | 100 to 999 nM
21 | CC(=O)Nc1cc(N2CCC[C@@H](NC(=O)CNc3cc(Cl)cc(Cl)c3)C2)ncn1 [Example 141, (R)—N-(1-(6-acetamidopyrimidin-4-yl)piperidin-3-yl)-2-(3,5-dichlorophenylamino)acetamide] | 1000 to 10000 nM
22 | CCNc1cc(N2CCC[C@@H](NC(=O)CNc3cc(Cl)cc(Cl)c3)C2)ncn1 [Example 143, (R)-2-(3,5-dichlorophenylamino)-N-(1-(6-(ethylamino)pyrimidin-4-yl)piperidin-3-yl)acetamide] | 1000 to 10000 nM
23 | CNc1cc(N2CCC[C@@H](NC(=O)CNc3cc(Cl)cc(Cl)c3)C2)ncn1 [Example 144, (R)-2-(3,5-dichlorophenylamino)-N-(1-(6-(methylamino)pyrimidin-4-yl)piperidin-3-yl)acetamide] | 100 to 999 nM

More lines, now with the values ahead:

Row | IC50 | SMILES
24 | < 100 nM | O=C(N[C@@H]1CCCN(c2ncnc3[nH]ccc23)C1)[C@H](Nc1ccccc1)C1CC1 [Example 107, (R)—N—((R)-1-(7H-pyrrolo[2,3-d]pyrimidin-4-yl)piperidin-3-yl)-2-cyclopropyl-2-(phenylamino)acetamide]
25 | 100 to 999 nM | CC(C)(C)[C@@H](Nc1ccccc1)C(=O)N[C@@H]1CCCN(c2ncnc3[nH]ccc23)C1 [Example 108, (R)—N—((R)-1-(7H-pyrrolo[2,3-d]pyrimidin-4-yl)piperidin-3-yl)-3,3-dimethyl-2-(phenylamino)butanamide]
26 | 100 to 999 nM | CC[C@H](C)[C@@H](Nc1ccccc1)C(=O)N[C@@H]1CCCN(c2ncnc3[nH]ccc23)C1 [Example 115, (2R,3S)—N—((R)-1-(7H-pyrrolo[2,3-d]pyrimidin-4-yl)piperidin-3-yl)-3-methyl-2-(phenylamino)pentanamide]
27 | < 100 nM | O=C(N[C@@H]1CCCN(c2ncnc3[nH]ccc23)C1)[C@H](Nc1cc(F)cc(C(F)(F)F)c1)C1CC1 [Example 121, (R)—N—((R)-1-(7H-pyrrolo[2,3-d]pyrimidin-4-yl)piperidin-3-yl)-2-cyclopropyl-2-(3-fluoro-5-(trifluoromethyl)phenylamino)acetamide]
28 | 1000 to 10000 nM | CC(C)CC[C@@H](Nc1ccccc1)C(=O)N[C@@H]1CCCN(c2ncnc3[nH]ccc23)C1 [Example 122, (R)—N—((R)-1-(7H-pyrrolo[2,3-d]pyrimidin-4-yl)piperidin-3-yl)-5-methyl-2-(phenylamino)hexanamide]
29 | 1000 to 10000 nM | O=C(N[C@@H]1CCCN(c2ncnc3[nH]ccc23)C1)C(CC(F)(F)F)Nc1ccccc1 (stereo partly drawn) [Example 123, (N—((R)-1-(7H-pyrrolo[2,3-d]pyrimidin-4-yl)piperidin-3-yl)-4,4,4-trifluoro-2-(phenylamino)butanamide)]
30 | 1000 to 10000 nM | CC(C)(Nc1ccccc1)C(=O)N[C@@H]1CCCN(c2ncnc3[nH]ccc23)C1 [Example 128, (R)—N-(1-(7H-pyrrolo[2,3-d]pyrimidin-4-yl)piperidin-3-yl)-2-methyl-2-(phenylamino)propanamide]
31 | < 100 nM | CC[C@@H](Nc1cc(F)cc(Cl)c1)C(=O)N[C@@H]1CCCN(c2ncnc3[nH]ncc23)C1 [Example 129, (R)—N—((R)-1-(1H-pyrazolo[3,4-d]pyrimidin-4-yl)piperidin-3-yl)-2-(3-chloro-5-fluorophenylamino)butanamide]
32 | < 100 nM | CC[C@@H](Nc1cc(Cl)cc(Cl)c1)C(=O)N[C@@H]1CCCN(c2ncnc3[nH]ncc23)C1 [Example 130, (R)—N—((R)-1-(1H-pyrazolo[3,4-d]pyrimidin-4-yl)piperidin-3-yl)-2-(3,5-dichlorophenylamino)butanamide]
33 | 100 to 999 nM | O=C1CCc2c(ncnc2N2CCC[C@@H](NC(=O)[C@H](Nc3cc(F)cc(Cl)c3)C3CC3)C2)N1 [Example 135, (R)-2-(3-chloro-5-fluorophenylamino)-2-cyclopropyl-N—((R)-1-(7-oxo-5,6,7,8-tetrahydropyrido[2,3-d]pyrimidin-4-yl)piperidin-3-yl)acetamide]
34 | 1000 to 10000 nM | CC(C)Nc1cc(N2CCC[C@@H](NC(=O)CNc3cc(Cl)cc(Cl)c3)C2)ncn1 [Example 142, (R)-2-(3,5-dichlorophenylamino)-N-(1-(6-(isopropylamino)pyrimidin-4-yl)piperidin-3-yl)acetamide]
